{"source": "paper PMC5218480", "about": "(PLoS ONE, 2017)", "test_system": "MV-4-11 cells", "assay": "Gene expression microarray analysis (Affymetrix PrimeView) and GSEA", "assay_type": "cell-based, human", "set-up": "RFU PODN (11730768_x_at) / Fold change /veh PODN (11730768_x_at) / RFU LINC00158 (11744669_a_at) / Fold change /veh LINC00158 (11744669_a_at) / RFU DUSP10 (11751237_a_at) / Fold change /veh DUSP10 (11751237_a_at) / RFU ID3 (11757404_x_at) / Fold change /veh ID3 (11757404_x_at) / RFU PLEKHG5 (11737974_s_at) / Fold change /veh PLEKHG5 (11737974_s_at) / RFU LRRC4B (11730491_at) / Fold change /veh LRRC4B (11730491_at) / RFU GIMAP4 (11747438_a_at) / Fold change /veh GIMAP4 (11747438_a_at) / RFU KRT8 (11758183_x_at) / Fold change /veh KRT8 (11758183_x_at) / RFU CNN1 (11734310_a_at) / Fold change /veh CNN1 (11734310_a_at) / RFU VPS37D (11726825_at) / Fold change /veh VPS37D (11726825_at) / RFU C10orf10 (11716522_x_at) / Fold change /veh C10orf10 (11716522_x_at) / RFU KIR2DL2 /// KIR2DL4 /// KIR2DL5A /// KIR2DL5B /// KIR2DS1 /// KIR2DS2 /// KIR2DS3 /// KIR2DS4 /// KIR3DL3 /// KIR3DL3 /// KIR3DS1 (11738374_at) / Fold change /veh KIR2DL2 /// KIR2DL4 /// KIR2DL5A /// KIR2DL5B /// KIR2DS1 /// KIR2DS2 /// KIR2DS3 /// KIR2DS4 /// KIR3DL3 /// KIR3DL3 /// KIR3DS1 (11738374_at) / RFU C1QL1 (11718748_at) / Fold change /veh C1QL1 (11718748_at) / RFU TMPRSS4 (11747572_a_at) / Fold change /veh TMPRSS4 (11747572_a_at) / RFU HAMP (11756126_x_at) / Fold change /veh HAMP (11756126_x_at) / RFU RNFT2 (11725882_a_at) / Fold change /veh RNFT2 (11725882_a_at) / RFU NR4A2 (11747474_a_at) / Fold change /veh NR4A2 (11747474_a_at) / RFU ABCC12 (11746883_a_at) / Fold change /veh ABCC12 (11746883_a_at) / RFU TMEM136 (11760407_x_at) / Fold change /veh TMEM136 (11760407_x_at) / RFU CLDN22 /// WWC2 (11732394_at) / Fold change /veh CLDN22 /// WWC2 (11732394_at) / RFU HLA-DPB1 (11760878_x_at) / Fold change /veh HLA-DPB1 (11760878_x_at) / RFU SPINT1 (11716480_a_at) / Fold change /veh SPINT1 (11716480_a_at) / RFU GAP43 (11754022_s_at) / Fold change /veh GAP43 (11754022_s_at) / RFU A4GNT (11735810_at) / Fold change /veh A4GNT (11735810_at) / RFU PRB3 (11715151_x_at) / Fold change /veh PRB3 (11715151_x_at) / RFU TUBB4B (11761932_at) / Fold change /veh TUBB4B (11761932_at) / RFU CAPN14 (11732068_a_at) / Fold change /veh CAPN14 (11732068_a_at) / RFU TMCC2 (11721928_a_at) / Fold change /veh TMCC2 (11721928_a_at) / RFU IRGQ (11745062_a_at) / Fold change /veh IRGQ (11745062_a_at) / RFU FAM174B (11720279_a_at) / Fold change /veh FAM174B (11720279_a_at) / RFU TMPRSS4 (11748680_a_at) / Fold change /veh TMPRSS4 (11748680_a_at) / RFU FAM212B (11763350_a_at) / Fold change /veh FAM212B (11763350_a_at) / RFU PLEKHG5 (11743358_a_at) / Fold change /veh PLEKHG5 (11743358_a_at) / RFU ZSCAN30 (11745921_a_at) / Fold change /veh ZSCAN30 (11745921_a_at) / RFU CMKLR1 (11741424_a_at) / Fold change /veh CMKLR1 (11741424_a_at) / RFU LOC101060620 /// MAPK8IP1 (11723275_at) / Fold change /veh LOC101060620 /// MAPK8IP1 (11723275_at) / RFU SPTSSB (11747773_x_at) / Fold change /veh SPTSSB (11747773_x_at) / RFU PRSS12 (11739890_at) / Fold change /veh PRSS12 (11739890_at) / RFU BIN1 (11741810_x_at) / Fold change /veh BIN1 (11741810_x_at) / RFU WNT11 (11732464_a_at) / Fold change /veh WNT11 (11732464_a_at) / RFU C10orf10 (11716521_a_at) / Fold change /veh C10orf10 (11716521_a_at) / RFU C5orf56 (11738089_at) / Fold change /veh C5orf56 (11738089_at) / RFU CYB561 (11721691_x_at) / Fold change /veh CYB561 (11721691_x_at) / RFU ANKRD19P (11752326_a_at) / Fold change /veh ANKRD19P (11752326_a_at) / RFU OR2T12 /// OR2T33 /// OR2T8 (11738714_s_at) / Fold change /veh OR2T12 /// OR2T33 /// OR2T8 (11738714_s_at) / RFU VCAN (11748164_a_at) / Fold change /veh VCAN (11748164_a_at) / RFU JSRP1 (11732532_at) / Fold change /veh JSRP1 (11732532_at) / RFU KRTAP10-11 (11738290_x_at) / Fold change /veh KRTAP10-11 (11738290_x_at) / RFU MYO3A (11730013_a_at) / Fold change /veh MYO3A (11730013_a_at) / RFU EBF3 (11725865_a_at) / Fold change /veh EBF3 (11725865_a_at) / RFU CAMK2N1 (11719241_x_at) / Fold change /veh CAMK2N1 (11719241_x_at) / RFU C5orf56 (11738088_a_at) / Fold change /veh C5orf56 (11738088_a_at) / RFU OLFML3 (11715873_a_at) / Fold change /veh OLFML3 (11715873_a_at) / RFU LOC100653217 /// NTM (11731650_a_at) / Fold change /veh LOC100653217 /// NTM (11731650_a_at) / RFU MAPK11 (11762145_a_at) / Fold change /veh MAPK11 (11762145_a_at) / RFU FIZ1 (11724087_x_at) / Fold change /veh FIZ1 (11724087_x_at) / RFU OASL (11726364_x_at) / Fold change /veh OASL (11726364_x_at) / RFU SOX15 (11748057_x_at) / Fold change /veh SOX15 (11748057_x_at) / RFU CD79A (11719716_a_at) / Fold change /veh CD79A (11719716_a_at) / RFU HIST1H1D (11736915_at) / Fold change /veh HIST1H1D (11736915_at) / RFU CASKIN2 (11723855_a_at) / Fold change /veh CASKIN2 (11723855_a_at) / RFU LOC730098 (11760151_x_at) / Fold change /veh LOC730098 (11760151_x_at) / RFU OR4N2 (11742367_at) / Fold change /veh OR4N2 (11742367_at) / RFU PRRT2 (11749266_a_at) / Fold change /veh PRRT2 (11749266_a_at) / RFU SNX32 (11753110_a_at) / Fold change /veh SNX32 (11753110_a_at) / RFU CDHR5 (11726645_a_at) / Fold change /veh CDHR5 (11726645_a_at) / RFU RCAN1 (11760418_a_at) / Fold change /veh RCAN1 (11760418_a_at) / RFU FAM167A (11723789_a_at) / Fold change /veh FAM167A (11723789_a_at) / RFU FAM26E (11764081_at) / Fold change /veh FAM26E (11764081_at) / RFU ISYNA1 (11749810_s_at) / Fold change /veh ISYNA1 (11749810_s_at) / RFU ACY1 (11761880_at) / Fold change /veh ACY1 (11761880_at) / RFU 11764098_at / Fold change /veh 11764098_at / RFU SAMD14 (11745864_x_at) / Fold change /veh SAMD14 (11745864_x_at) / RFU NPB (11741838_a_at) / Fold change /veh NPB (11741838_a_at) / RFU TMPRSS6 (11731388_a_at) / Fold change /veh TMPRSS6 (11731388_a_at) / RFU KRTAP10-2 (11738614_at) / Fold change /veh KRTAP10-2 (11738614_at) / RFU ARHGAP8 /// PRR5-ARHGAP8 (11727945_x_at) / Fold change /veh ARHGAP8 /// PRR5-ARHGAP8 (11727945_x_at) / RFU KRTAP5-7 /// NADSYN1 (11734609_at) / Fold change /veh KRTAP5-7 /// NADSYN1 (11734609_at) / RFU RASL12 (11751679_a_at) / Fold change /veh RASL12 (11751679_a_at) / RFU CDKN2B (11736163_a_at) / Fold change /veh CDKN2B (11736163_a_at) / RFU PRF1 (11729649_at) / Fold change /veh PRF1 (11729649_at) / RFU, ZNF638 /// ZNF638-IT1 / Fold change vs veh, ZNF638 /// ZNF638-IT1 / RFU, PANK3 / Fold change vs veh, PANK3 / RFU, SH3YL1 / Fold change vs veh, SH3YL1 / RFU, ZEB2 / Fold change vs veh, ZEB2 / RFU, NRIP1 / Fold change vs veh, NRIP1 / RFU, PTTG1IP / Fold change vs veh, PTTG1IP / RFU, CAPN2 / Fold change vs veh, CAPN2 / RFU, MED14 / Fold change vs veh, MED14 / RFU, SNORA58 / Fold change vs veh, SNORA58 / RFU, C1orf63 / Fold change vs veh, C1orf63 / RFU, LRRFIP1 / Fold change vs veh, LRRFIP1 / RFU, NDUFAF7 / Fold change vs veh, NDUFAF7 / RFU, SLC12A2 / Fold change vs veh, SLC12A2 / RFU, IBTK / Fold change vs veh, IBTK / RFU, ESF1 / Fold change vs veh, ESF1 / Fold change vs veh, TMEM50B / RFU, TAOK1 / Fold change vs veh, TAOK1 / RFU, ACBD3 / Fold change vs veh, ACBD3 / RFU, TMA16 / Fold change vs veh, TMA16 / RFU, RWDD3 / Fold change vs veh, RWDD3 / RFU, BCAT1 / Fold change vs veh, BCAT1 / RFU, EDEM3 / Fold change vs veh, EDEM3 / RFU, TMEM33 / Fold change vs veh, TMEM33 / RFU, WDR75 / Fold change vs veh, WDR75 / RFU, AHCTF1 / Fold change vs veh, AHCTF1 / RFU, TFRC / Fold change vs veh, TFRC / RFU, ZDHHC17 / Fold change vs veh, ZDHHC17 / RFU, NOM1 / Fold change vs veh, NOM1 / RFU, ARL8B / Fold change vs veh, ARL8B / RFU, ZBTB11 / Fold change vs veh, ZBTB11 / RFU, TAMM41 / Fold change vs veh, TAMM41 / RFU, KIAA1704 /// LOC100996395 / Fold change vs veh, KIAA1704 /// LOC100996395 / RFU, ING1 / Fold change vs veh, ING1 / RFU, TRMT61B / Fold change vs veh, TRMT61B / RFU, FUBP3 / Fold change vs veh, FUBP3 / RFU, TP53 / Fold change vs veh, TP53 / RFU, TNKS2 / Fold change vs veh, TNKS2 / RFU, ZFP14 / Fold change vs veh, ZFP14 / RFU, ACTR2 / Fold change vs veh, ACTR2 / RFU, PPP3R1 / Fold change vs veh, PPP3R1 / RFU, PIK3R1 / Fold change vs veh, PIK3R1 / RFU, HNRNPA1 / Fold change vs veh, HNRNPA1 / RFU, RNF170 / Fold change vs veh, RNF170 / RFU, ZNF28 / Fold change vs veh, ZNF28 / RFU, RNGTT / Fold change vs veh, RNGTT / RFU, OGT / Fold change vs veh, OGT / RFU, BRD1 / Fold change vs veh, BRD1 / RFU, MARS / Fold change vs veh, MARS / RFU, ZNF655 / Fold change vs veh, ZNF655 / RFU, FAHD1 / Fold change vs veh, FAHD1 / RFU, BDP1 / Fold change vs veh, BDP1 / RFU, LRRCC1 / Fold change vs veh, LRRCC1 / RFU, ARID1A / Fold change vs veh, ARID1A / RFU, ZNF146 / Fold change vs veh, ZNF146 / RFU, ZNF330 / Fold change vs veh, ZNF330 / RFU, GPN3 / Fold change vs veh, GPN3 / RFU, C9orf123 / Fold change vs veh, C9orf123 / RFU, N4BP2L2 / Fold change vs veh, N4BP2L2 / RFU, ARFIP1 / Fold change vs veh, ARFIP1 / RFU, FAM179B / Fold change vs veh, FAM179B / RFU, BCL10 / Fold change vs veh, BCL10 / RFU, UHRF1BP1L / Fold change vs veh, UHRF1BP1L / RFU, BET1 / Fold change vs veh, BET1 / RFU, CNOT2 / Fold change vs veh, CNOT2 / RFU, ZNF268 / Fold change vs veh, ZNF268 / Fold change vs veh, ZNF507 / RFU, DGCR2 / Fold change vs veh, DGCR2 / RFU, WDSUB1 / Fold change vs veh, WDSUB1 / Fold change vs veh, HSP90B1 /// MIR3652 / RFU, ADSS / Fold change vs veh, ADSS / RFU, GK / Fold change vs veh, GK / RFU, ZNF148 / Fold change vs veh, ZNF148 / RFU, TAF9 / Fold change vs veh, TAF9 / RFU, SLC1A5 / Fold change vs veh, SLC1A5 / RFU, SLMO2 / Fold change vs veh, SLMO2 / RFU, ABCC4 / Fold change vs veh, ABCC4 / RFU, LOC101060439 /// RAP1B / Fold change vs veh, LOC101060439 /// RAP1B / RFU, RFX7 / Fold change vs veh, RFX7 / RFU, GTPBP10 / Fold change vs veh, GTPBP10 / RFU, CNEP1R1 / Fold change vs veh, CNEP1R1 / RFU, BIVM-ERCC5 /// ERCC5 / Fold change vs veh, BIVM-ERCC5 /// ERCC5 / RFU, ILF3 / Fold change vs veh, ILF3 / RFU 11762660_at / Fold change /veh 11762660_at / RFU VCAN (11757783_s_at) / Fold change /veh VCAN (11757783_s_at) / RFU DDX43 (11728927_at) / Fold change /veh DDX43 (11728927_at) / RFU KRT8 (11758188_x_at) / Fold change /veh KRT8 (11758188_x_at) / RFU NKD1 (11759106_at) / Fold change /veh NKD1 (11759106_at) / RFU SRD5A1 (11742802_a_at) / Fold change /veh SRD5A1 (11742802_a_at) / RFU TPSAB1 /// TPSB2 (11721975_s_at) / Fold change /veh TPSAB1 /// TPSB2 (11721975_s_at) / RFU GSTM3 (11746129_a_at) / Fold change /veh GSTM3 (11746129_a_at) / RFU IL23R (11737362_x_at) / Fold change /veh IL23R (11737362_x_at) / RFU TMEM51 (11727254_a_at) / Fold change /veh TMEM51 (11727254_a_at) / RFU PIWIL2 (11732686_x_at) / Fold change /veh PIWIL2 (11732686_x_at) / RFU ORM1 (11744905_x_at) / Fold change /veh ORM1 (11744905_x_at) / RFU CCDC152 (11743942_at) / Fold change /veh CCDC152 (11743942_at) / RFU ECM1 (11717891_a_at) / Fold change /veh ECM1 (11717891_a_at) / RFU IL23R (11748794_a_at) / Fold change /veh IL23R (11748794_a_at) / RFU TNFAIP8L3 (11732012_x_at) / Fold change /veh TNFAIP8L3 (11732012_x_at) / RFU MBOAT4 (11741988_at) / Fold change /veh MBOAT4 (11741988_at) / RFU 11764193_at / Fold change /veh 11764193_at / RFU TMEM53 (11763286_at) / Fold change /veh TMEM53 (11763286_at) / RFU MAGEB2 (11727129_at) / Fold change /veh MAGEB2 (11727129_at) / RFU TMEM200A (11744735_a_at) / Fold change /veh TMEM200A (11744735_a_at) / RFU CCDC152 (11751479_a_at) / Fold change /veh CCDC152 (11751479_a_at) / RFU FAM211A (11726209_a_at) / Fold change /veh FAM211A (11726209_a_at) / RFU RGS16 (11746705_a_at) / Fold change /veh RGS16 (11746705_a_at) / RFU VCAN (11755009_s_at) / Fold change /veh VCAN (11755009_s_at) / RFU RHOB (11743442_s_at) / Fold change /veh RHOB (11743442_s_at) / RFU RGS16 (11720943_a_at) / Fold change /veh RGS16 (11720943_a_at) / RFU RGS16 (11720944_at) / Fold change /veh RGS16 (11720944_at) / RFU, VPS4B / Fold change vs veh, VPS4B / RFU, CREB1 / Fold change vs veh, CREB1 / RFU, DNAJC13 / Fold change vs veh, DNAJC13 / RFU, GNAQ / Fold change vs veh, GNAQ / RFU, CDK5R1 / Fold change vs veh, CDK5R1 / RFU, ZRANB3 / Fold change vs veh, ZRANB3 / RFU, CUL4A / Fold change vs veh, CUL4A / RFU, CCNY / Fold change vs veh, CCNY / RFU, UFL1 / Fold change vs veh, UFL1 / RFU, COG3 / Fold change vs veh, COG3 / RFU, DIAPH2 / Fold change vs veh, DIAPH2 / RFU, SKA2 / Fold change vs veh, SKA2 / RFU, AFF3 / Fold change vs veh, AFF3 / RFU, LMF1 / Fold change vs veh, LMF1 / RFU, IPO11 / Fold change vs veh, IPO11 / RFU, DFFB / Fold change vs veh, DFFB / RFU, FOXP1 / Fold change vs veh, FOXP1 / RFU, CARD8 / Fold change vs veh, CARD8 / RFU, STRN3 / Fold change vs veh, STRN3 / RFU, ADK / Fold change vs veh, ADK / RFU, RASSF2 / Fold change vs veh, RASSF2 / RFU, WIPF1 / Fold change vs veh, WIPF1 / RFU, LARP1B / Fold change vs veh, LARP1B / RFU, RASA1 / Fold change vs veh, RASA1 / RFU, RB1 / Fold change vs veh, RB1 / RFU, PPFIA1 / Fold change vs veh, PPFIA1 / RFU, MAT2A / Fold change vs veh, MAT2A / RFU, CCT5 / Fold change vs veh, CCT5 / RFU, WDR92 / Fold change vs veh, WDR92 / RFU, CUX1 / Fold change vs veh, CUX1 / RFU, TTC7A / Fold change vs veh, TTC7A / RFU, TMEM135 / Fold change vs veh, TMEM135 / RFU, DEPTOR / Fold change vs veh, DEPTOR / RFU, CPM / Fold change vs veh, CPM / RFU, DNAJB6 / Fold change vs veh, DNAJB6 / RFU, CACNA2D3 / Fold change vs veh, CACNA2D3 / RFU, DTX4 / Fold change vs veh, DTX4 / RFU, TFCP2 / Fold change vs veh, TFCP2 / RFU, GMCL1 /// GMCL1P1 / Fold change vs veh, GMCL1 /// GMCL1P1 / RFU, AEBP2 / Fold change vs veh, AEBP2 / RFU, SNHG1 /// SNORD22 /// SNORD25 /// SNORD26 /// SNORD27 /// SNORD28 /// SNORD29 /// SNORD31 / Fold change vs veh, SNHG1 /// SNORD22 /// SNORD25 /// SNORD26 /// SNORD27 /// SNORD28 /// SNORD29 /// SNORD31 / Fold change (Aza/veh), C12orf56 (ProbeSet 11735607_a_at) / Fold change (ACY-1035/veh), C12orf56 (ProbeSet 11735607_a_at) / Fold change (Aza/veh), FGFR1OP (ProbeSet 11751329_s_at) / Fold change (ACY-1035/veh), FGFR1OP (ProbeSet 11751329_s_at) / Fold change (Aza/veh), VPS36 (ProbeSet 11739960_a_at) / Fold change (ACY-1035/veh), VPS36 (ProbeSet 11739960_a_at) / RFU SYPL1 (11715823_x_at) / Fold change /veh SYPL1 (11715823_x_at) / RFU IGFBP7 (11715501_s_at) / Fold change /veh IGFBP7 (11715501_s_at) / RFU REEP3 (11722064_at) / Fold change /veh REEP3 (11722064_at) / RFU IGLL1 (11728026_x_at) / Fold change /veh IGLL1 (11728026_x_at): dose or concentration left out as unconfirmed", "settings": "MV-4-11 cells, 48 hours"}
{"molecule": "Nc1ccc(-c2cccs2)cc1NC(=O)c1ccc2c(c1)cc(C1CC1)n2CCN1CCOCC1", "note": "[ACY-1035]", "values": [{"measurement": "Fold change /veh TUBB4B (11761932_at)", "result": 1.03}]}
